Experimental data reported in article PMC6768323, “Adverse Maternal, Fetal, and Postnatal Effects of Hexafluoropropylene Oxide Dimer Acid (GenX) from Oral Gestational Exposure in Sprague-Dawley Rats” (Environmental Health Perspectives, 2019).
Where “and” joins values, the source holds several entries; their conditions need not be identical. Equal entries are not always repeated.

Experiments:
[1] = HFPO-DA concentrations in maternal serum and fetal plasma; format: in vivo, Sprague-Dawley rats
Method: Maternal sera from all three blocks and fetal plasma from the third block were analyzed for HFPO-DA concentrations similar to previously reported methods ([McCord et al. 2018]; [Reiner et al. 2009]; [Rushing et al. 2017]). Serum or plasma samples ( 25μL ) were denatured using 0.1M formic acid (FA) followed by a cold ( −20°C ) acetonitrile (ACN) protein crash. The volumes of FA and ACN varied based on the anticipated concentrations of HFPO-DA in the sample ( 0–100 ng HFPO-DA/mL=100μL FA +0.5mL ACN; 100–5,000 ng HFPO-DA/mL=100μL FA +1.0mL ACN; 5,000–200,000 ng HFPO-DA/mL=1.0mL FA added, then 100-μL subsamples removed and crashed with 900μL cold ACN). Samples were vortex mixed after FA and ACN additions then centrifuged at 10,000×g for 5 min and the supernatant removed. Sample extracts were separated using a Waters ACQUITY ultra performance liquid chromatograph (UPLC) (Waters Corporation) fitted with a Waters ACQUITY UPLC BEH C18 column ( 2.1mm×50mm; 1.7μm; 130 Å ). Detection was performed using a Waters Quattro Premier XE tandem quadrupole mass spectrometer in negative ionization mode. A stable isotope of HFPO-DA ( C313 , Wellington Laboratories) was used as an internal standard for quantitation. Separate calibration curves were prepared for the ranges 0–100 ng/mL , 100–5,000 ng/mL , and 5,000–200,000 ng/mL to account for expected concentration differences between control, offspring (fetus/pup), and dam concentrations across the dose range tested.
Serum HFPO-DA concentrations in the mother and the fetus were analyzed as a function of oral dose administered to the mother. We utilized nonlinear regression (exponential one-phase association) to describe the increase and saturation of serum HFPO-DA concentrations across the full oral dose range ( 1–500mg/kg ) for maternal serum. Fetal plasma HFPO-DA concentrations were only analyzed in the low-dose range ( 1–30mg/kg ), which was better described using a linear uptake model. We compared the slopes of the low-dose linear regressions for maternal serum and fetal plasma HFPO-DA concentrations using GraphPad Prism.

[2] = test system: estrogen (ER) receptor; assay: ER transcriptional activation, T47D-KBluc cells; format: cell-based; settings: 100 pM to 10 μM
Method: HFPO-DA was assessed for agonism and antagonism of transcriptional activation for estrogen (ER), androgen (AR), and glucocorticoid receptors (GR). Method details for in vitro transactivation assays for ER ([Wilson et al. 2004a]), AR ([Hartig et al. 2002], [2007]), and GR ([Conley et al. 2017]; [Medlock Kakaley et al. 2018]) have been previously reported. Briefly, for ER activity we utilized the stably transfected T47D-KBluc cell line [publicly available via American Type Culture Collection (ATCC); CRL-2865] according to protocols provided by ATCC with the modification of Dulbecco’s Modified Eagle Media (DMEM) as the cell culture media instead of Roswell Park Memorial Institute (RPMI) media. […] All assays were run in 96-well plates and luminescence was detected using a BMG Fluostar Omega luminometer (BMG Labtech) following 24-h exposure. […] Cellular cytotoxicity across the dosing range was determined for CV-1 cells utilizing the 3-(4,5-dimethylthiazol-2-yl)-2,5-diphenyltetrazolium bromide (MTT) dye ([Mosmann 1983]). HFPO-DA was analyzed using n=2–3 biological replicate assay plates (i.e., unique cell passages) with four technical replicates per treatment per plate. […]

## O=C(O)C(F)(OC(F)(F)C(F)(F)C(F)(F)F)C(F)(F)F (stereo not drawn) [HFPO-DA, Hexafluoropropylene oxide dimer acid]
[1]; 1-30 mg/kg, linear regression
  fetal plasma HFPO-DA slope per 1-mg/kg increase in oral maternal dose: 0.12 µg/mL and 0.12 ± 0.0094 µg/mL
  fetal plasma y-intercept: 0.17±0.13
  maternal serum HFPO-DA slope per 1-mg/kg increase in oral maternal dose: 0.46 µg/mL and 0.46 ± 0.06 µg/mL
  maternal serum y-intercept: 0.032±0.80
[1]; 1-500 mg/kg
  plateau of maternal serum HFPO-DA, exponential one-phase association: 112 ± 15 µg/mL
[2]
  estrogenic activity (agonism or antagonism): did not display any estrogenic activity
